Measured values from ChEMBL document CHEMBL5316333, “Potent Long-Acting Inhibitors Targeting the HIV-1 Capsid Based on a Versatile Quinazolin-4-one Scaffold” (J Med Chem, 2023).

Key:
[1] = system: Human immunodeficiency virus 1; assay: Antiviral activity against HIV-1 NLRep-Rluc infected in human MT2 cells assessed as inhibition of viral growth incubated for 96 hrs by renilla luciferase assay; type: functional, organism-based
[2] = Clearance in Sprague-Dawley rat at 1 mg/kg, iv and measured upto 96 hrs by LC-MS/MS analysis; type: ADME, organism-based; conditions: in vivo
[3] = system: MT2; assay: Cytotoxicity against human MT2 cells assessed as reduction in cell viability incubated for 4 days by XTT assay; type: toxicity, cell-based; conditions: mt2, 96 h, 96 h, time 4 day
[4] = Selectivity index, ratio of CC50 for cytotoxicity against human MT2 cells to EC50 for antiviral activity against HIV-1 NLRep-Rluc infected in human MT2 cells; type: toxicity, cell-based; conditions: read-out: Ratio CC50/EC50
[5] = Human immunodeficiency virus 1, NLRep-Rluc, MT2, 96 h

Work on `Cn1nc(NS(C)(=O)=O)c2c(Cl)ccc(-n3c([C@H](Cc4cc(F)cc(F)c4)NC(=O)Cn4nc(C(F)F)c5c4C(F)(F)[C@@H]4C[C@H]54)nc4cc(N5C6COCC5COC6)ccc4c3=O)c21` yielded an EC50 [1, 5] of 0.24 nM.
In the case of `Cn1nc(NS(C)(=O)=O)c2c(Cl)ccc(-n3c([C@H](Cc4cc(F)cc(F)c4)NC(=O)Cn4nc(C(F)F)c5c4C(F)(F)[C@@H]4C[C@H]54)nc4cc(C5CC5)ccc4c3=O)c21`, the clearance [2] is reported as 4.3 mL/min/kg and the EC50 [1, 5] is reported as 0.14 nM.
For `Cn1nc(NS(C)(=O)=O)c2c(Cl)ccc(-n3c([C@H](Cc4cc(F)cc(F)c4)NC(=O)Cn4nc(C(F)F)c5c4C(F)(F)[C@@H]4C[C@H]54)nc4cc(N5CC(C)(C)OC(C)(C)C5)ccc4c3=O)c21`, the EC50 [1, 5] was 0.12 nM.
Work on `Cn1nc(NS(C)(=O)=O)c2c(Cl)ccc(-n3c([C@H](Cc4cc(F)cc(F)c4)NC(=O)Cn4nc(C(F)F)c5c4C(F)(F)[C@@H]4C[C@H]54)nc4ccccc4c3=O)c21` (stereo in doubt; 13a) yielded a CC50 [3] greater than 1000 nM and an EC50 ([1]; mt2) of 81 nM.
`Cn1nc(NS(C)(=O)=O)c2c(Cl)ccc(-n3c([C@H](Cc4cc(F)cc(F)c4)NC(=O)Cn4nc(C(F)F)c5c4C(F)(F)[C@@H]4C[C@H]54)nc4cc(N5CCO[C@@H](C(F)(F)F)C5)ccc4c3=O)c21` gave an EC50 [1, 5] of 0.081 nM.
For `Cn1nc(NS(C)(=O)=O)c2c(Cl)ccc(-n3c([C@H](Cc4cc(F)cc(F)c4)NC(=O)Cn4nc(C(F)F)c5c4C(F)(F)[C@@H]4C[C@H]54)nc4cc(N5CC6(COC6)C5)ccc4c3=O)c21`, the clearance [2] was 18 mL/min/kg and the EC50 [1, 5] was 0.064 nM.
`Cn1nc(NS(C)(=O)=O)c2c(Cl)ccc(-n3c([C@H](Cc4cc(F)cc(F)c4)NC(=O)Cn4nc(C(F)F)c5c4C(F)(F)[C@@H]4C[C@H]54)nc4cc(C(C)(C)O)ccc4c3=O)c21` showed a clearance [2] of 26 mL/min/kg and an EC50 [1, 5] of 0.15 nM.
`Cn1nc(NS(C)(=O)=O)c2c(Cl)ccc(-n3c([C@H](Cc4cc(F)cc(F)c4)NC(=O)Cn4nc(C(F)F)c5c4C(F)(F)[C@@H]4C[C@H]54)nc4cc(C#N)ccc4c3=O)c21` showed a clearance [2] of 82 mL/min/kg and an EC50 [1, 5] of 0.017 nM.
Molecule `COc1ccc2c(=O)n(-c3ccc(Cl)c4c(NS(C)(=O)=O)nn(C)c34)c([C@H](Cc3cc(F)cc(F)c3)NC(=O)Cn3nc(C(F)F)c4c3C(F)(F)[C@@H]3C[C@H]43)nc2c1F` has a clearance [2] of 11 mL/min/kg and an EC50 [1, 5] of 0.13 nM.
`Cn1nc(NS(C)(=O)=O)c2c(Cl)ccc(-n3c([C@H](Cc4cc(F)cc(F)c4)NC(=O)Cn4nc(C(F)F)c5c4C(F)(F)[C@@H]4C[C@H]54)nc4cc(C(C)(F)F)ccc4c3=O)c21` gave a clearance [2] of 2.8 mL/min/kg and an EC50 [1, 5] of 0.078 nM.
Work on `Cn1nc(NS(C)(=O)=O)c2c(Cl)ccc(-n3c([C@H](Cc4cc(F)cc(F)c4)NC(=O)Cn4nc(C(F)F)c5c4C(F)(F)[C@@H]4C[C@H]54)nc4cc(N5CCS(=O)(=O)CC5)ccc4c3=O)c21` yielded an EC50 [1, 5] of 0.47 nM.
In the case of `Cn1nc(NS(C)(=O)=O)c2c(Cl)ccc(-n3c([C@H](Cc4cc(F)cc(F)c4)NC(=O)Cn4nc(C(F)F)c5c4C(F)(F)[C@@H]4C[C@H]54)nc4cc(Cl)ccc4c3=O)c21`, the EC50 [1, 5] is reported as 0.058 nM.
Molecule `Cn1nc(NS(C)(=O)=O)c2c(Cl)ccc(-n3c([C@H](Cc4cc(F)cc(F)c4)NC(=O)Cn4nc(C(F)F)c5c4C(F)(F)[C@@H]4C[C@H]54)nc4cc(C(C)(C)C)ccc4c3=O)c21` has a clearance [2] of 19 mL/min/kg and an EC50 [1, 5] of 0.13 nM.
`Cn1nc(NS(C)(=O)=O)c2c(Cl)ccc(-n3c([C@H](Cc4cc(F)cc(F)c4)NC(=O)Cn4nc(C(F)F)c5c4C(F)(F)[C@@H]4C[C@H]54)nc4cc(N5CCC5)ccc4c3=O)c21` gave an EC50 [1, 5] of 0.11 nM.
`Cn1nc(NS(C)(=O)=O)c2c(Cl)ccc(-n3c([C@H](Cc4cc(F)cc(F)c4)NC(=O)Cn4nc(C(F)F)c5c4C(F)(F)[C@@H]4C[C@H]54)nc4cc(N5CCOCC5=O)ccc4c3=O)c21` gave an EC50 [1, 5] of 0.11 nM.
`CN1CCN(c2ccc3c(=O)n(-c4ccc(Cl)c5c(NS(C)(=O)=O)nn(C)c45)c([C@H](Cc4cc(F)cc(F)c4)NC(=O)Cn4nc(C(F)F)c5c4C(F)(F)[C@@H]4C[C@H]54)nc3c2)CC1` gave a clearance [2] of 60 mL/min/kg and an EC50 [1, 5] of 0.15 nM.
Molecule `COc1ccc2c(=O)n(-c3ccc(Cl)c4c(NS(C)(=O)=O)nn(C)c34)c([C@H](Cc3cc(F)cc(F)c3)NC(=O)Cn3nc(C(F)F)c4c3C(F)(F)[C@@H]3C[C@H]43)nc2c1` (stereo in doubt; 13b) has a CC50 [3] greater than 1000 nM and an EC50 ([1]; mt2) of 9.8 nM.
`Cn1nc(NS(C)(=O)=O)c2c(Cl)ccc(-n3c([C@H](Cc4cc(F)cc(F)c4)NC(=O)Cn4nc(C(F)F)c5c4C(F)(F)[C@@H]4C[C@H]54)nc4cc(N5C[C@H]6CC[C@@H](C5)O6)ccc4c3=O)c21` gave an EC50 [1, 5] of 0.064 nM.
In the case of `Cn1nc(NS(C)(=O)=O)c2c(Cl)ccc(-n3c([C@H](Cc4cc(F)cc(F)c4)NC(=O)Cn4nc(C(F)F)c5c4C(F)(F)[C@@H]4C[C@H]54)nc4cccc(F)c4c3=O)c21`, the EC50 [1, 5] is reported as 0.13 nM.
`Cn1nc(NS(C)(=O)=O)c2c(Cl)ccc(-n3c([C@H](Cc4cc(F)cc(F)c4)NC(=O)Cn4nc(C(F)F)c5c4C(F)(F)[C@@H]4C[C@H]54)nc4cc(N5CCC6(CC5)COC6)ccc4c3=O)c21` showed an EC50 [1, 5] of 0.13 nM.
With `COc1cccc2c(=O)n(-c3ccc(Cl)c4c(NS(C)(=O)=O)nn(C)c34)c([C@H](Cc3cc(F)cc(F)c3)NC(=O)Cn3nc(C(F)F)c4c3C(F)(F)[C@@H]3C[C@H]43)nc12` the EC50 [1, 5] was 0.095 nM.
In the case of `Cn1nc(NS(C)(=O)=O)c2c(Cl)ccc(-n3c([C@H](Cc4cc(F)cc(F)c4)NC(=O)Cn4nc(C(F)F)c5c4C(F)(F)[C@@H]4C[C@H]54)nc4cc(N5CCOCC5)ccc4c3=O)c21`, the clearance [2] is reported as 16 mL/min/kg and the EC50 [1, 5] is reported as 0.037 nM.
With `Cn1nc(NS(C)(=O)=O)c2c(Cl)ccc(-n3c([C@H](Cc4cc(F)cc(F)c4)NC(=O)Cn4nc(C(F)F)c5c4C(F)(F)[C@@H]4C[C@H]54)nc4cc(N5CCCC5)ccc4c3=O)c21` the EC50 [1, 5] was 0.23 nM.
In the case of `COc1cccc2nc([C@H](Cc3cc(F)cc(F)c3)NC(=O)Cn3nc(C(F)F)c4c3C(F)(F)[C@@H]3C[C@H]43)n(-c3ccc(Cl)c4c(NS(C)(=O)=O)nn(C)c34)c(=O)c12` (stereo in doubt; 13d), the CC50 [3] is reported as greater than 1000 nM and the EC50 ([1]; mt2) is reported as 130 nM.
With `COc1cccc2nc([C@H](Cc3cc(F)cc(F)c3)NC(=O)Cn3nc(C(F)F)c4c3C(F)(F)[C@@H]3C[C@H]43)n(-c3ccc(Cl)c4c(NS(C)(=O)=O)nn(C)c34)c(=O)c12` (stereo in doubt; 12d) the selectivity ratio [4] was greater than 1000, the CC50 [3] was greater than 20000 nM and the EC50 ([1]; mt2) was 0.11 nM.
`Cn1nc(NS(C)(=O)=O)c2c(Cl)ccc(-n3c([C@H](Cc4cc(F)cc(F)c4)NC(=O)Cn4nc(C(F)F)c5c4C(F)(F)[C@@H]4C[C@H]54)nc4cc(N5[C@@H]6CC[C@H]5COC6)ccc4c3=O)c21` showed an EC50 [1, 5] of 0.057 nM.
Work on `COC1CCN(c2ccc3c(=O)n(-c4ccc(Cl)c5c(NS(C)(=O)=O)nn(C)c45)c([C@H](Cc4cc(F)cc(F)c4)NC(=O)Cn4nc(C(F)F)c5c4C(F)(F)[C@@H]4C[C@H]54)nc3c2)CC1` yielded an EC50 [1, 5] of 0.12 nM.
With `Cn1nc(NS(C)(=O)=O)c2c(Cl)ccc(-n3c([C@H](Cc4cc(F)cc(F)c4)NC(=O)Cn4nc(C(F)F)c5c4C(F)(F)[C@@H]4C[C@H]54)nc4cc(Br)ccc4c3=O)c21` the EC50 [1, 5] was 0.053 nM.
With `Cn1nc(NS(C)(=O)=O)c2c(Cl)ccc(-n3c([C@H](Cc4cc(F)cc(F)c4)NC(=O)Cn4nc(C(F)F)c5c4C(F)(F)[C@@H]4C[C@H]54)nc4ccc(F)cc4c3=O)c21` the clearance [2] was 29 mL/min/kg and the EC50 [1, 5] was 0.045 nM.
Work on `C[C@@H]1CN(c2ccc3c(=O)n(-c4ccc(Cl)c5c(NS(C)(=O)=O)nn(C)c45)c([C@H](Cc4cc(F)cc(F)c4)NC(=O)Cn4nc(C(F)F)c5c4C(F)(F)[C@@H]4C[C@H]54)nc3c2)C[C@H](C)N1C` yielded an EC50 [1, 5] of 0.091 nM.
`Cn1nc(NS(C)(=O)=O)c2c(Cl)ccc(-n3c([C@H](Cc4cc(F)cc(F)c4)NC(=O)Cn4nc(C(F)F)c5c4C(F)(F)[C@@H]4C[C@H]54)nc4cc(S(C)(=O)=O)ccc4c3=O)c21` gave a clearance [2] of 78 mL/min/kg and an EC50 [1, 5] of 0.15 nM.
Molecule `COc1ccc2nc([C@H](Cc3cc(F)cc(F)c3)NC(=O)Cn3nc(C(F)F)c4c3C(F)(F)[C@@H]3C[C@H]43)n(-c3ccc(Cl)c4c(NS(C)(=O)=O)nn(C)c34)c(=O)c2c1` (stereo in doubt; 13c) has an EC50 ([1]; mt2) of 38 nM.
Work on `CO[C@@H]1CCN(c2ccc3c(=O)n(-c4ccc(Cl)c5c(NS(C)(=O)=O)nn(C)c45)c([C@H](Cc4cc(F)cc(F)c4)NC(=O)Cn4nc(C(F)F)c5c4C(F)(F)[C@@H]4C[C@H]54)nc3c2)C1` yielded an EC50 [1, 5] of 0.058 nM.
For `Cn1nc(NS(C)(=O)=O)c2c(Cl)ccc(-n3c([C@H](Cc4cc(F)cc(F)c4)NC(=O)Cn4nc(C(F)F)c5c4C(F)(F)[C@@H]4C[C@H]54)nc4cc(F)ccc4c3=O)c21`, the clearance [2] was 40 mL/min/kg and the EC50 [1, 5] was 0.041 nM.
For `Cn1nc(NS(C)(=O)=O)c2c(Cl)ccc(-n3c([C@H](Cc4cc(F)cc(F)c4)NC(=O)Cn4nc(C(F)F)c5c4C(F)(F)[C@@H]4C[C@H]54)nc4cc(N5CCCOCC5)ccc4c3=O)c21`, the EC50 [1, 5] was 0.13 nM.
Work on `CCN(CC)c1ccc2c(=O)n(-c3ccc(Cl)c4c(NS(C)(=O)=O)nn(C)c34)c([C@H](Cc3cc(F)cc(F)c3)NC(=O)Cn3nc(C(F)F)c4c3C(F)(F)[C@@H]3C[C@H]43)nc2c1` yielded an EC50 [1, 5] of 0.2 nM.
With `COc1cc(OC)c2c(=O)n(-c3ccc(Cl)c4c(NS(C)(=O)=O)nn(C)c34)c([C@H](Cc3cc(F)cc(F)c3)NC(=O)Cn3nc(C(F)F)c4c3C(F)(F)[C@@H]3C[C@H]43)nc2c1` the clearance [2] was 65 mL/min/kg and the EC50 [1, 5] was 0.064 nM.
In the case of `Cn1nc(NS(C)(=O)=O)c2c(Cl)ccc(-n3c([C@H](Cc4cc(F)cc(F)c4)NC(=O)Cn4nc(C(F)F)c5c4C(F)(F)[C@@H]4C[C@H]54)nc4cc(N5CCOC(C)(C)C5)ccc4c3=O)c21`, the clearance [2] is reported as 9.6 mL/min/kg and the EC50 [1, 5] is reported as 0.05 nM.
`Cn1nc(NS(C)(=O)=O)c2c(Cl)ccc(-n3c([C@H](Cc4cc(F)cc(F)c4)NC(=O)Cn4nc(C(F)F)c5c4C(F)(F)[C@@H]4C[C@H]54)nc4cc(N5CCCCC5)ccc4c3=O)c21` gave a clearance [2] of 11 mL/min/kg and an EC50 [1, 5] of 0.27 nM.
